From the supplement of paper PMC7840683
Where a name gives a salt, the structure may show the parent alone. ± gives the standard deviation of the averaged measurements.

System: HepaRG
Assay: LDH release cytotoxicity, % of total lysis control; higher = more cytotoxic
Details: 48 h
How it was run: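 The CytoTox-ONE kit was used to read LDH in 50 µL spent medium as resorufin fluorescence on a Tecan Safire, with 0.1% Triton X added to total lysis wells. Beforehand, single-lot HepaRG cells on collagen I-coated 96-well plates had been exposed in duplicate for 48 h to eight-point half-log series (top 100 µM) in serum-free induction medium containing 0.5% DMSO. Percent cytotoxicity was normalized against on-plate vehicle and total lysis controls and averaged over duplicates.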

Row | SMILES | LDH release cytotoxicity (0.03162 µM) [%] | LDH release cytotoxicity (0.1 µM) [%] | LDH release cytotoxicity (0.3162278 µM) [%] | LDH release cytotoxicity (1 µM) [%] | LDH release cytotoxicity (3.16228 µM) [%] | LDH release cytotoxicity (10 µM) [%] | LDH release cytotoxicity (31.6228 µM) [%] | LDH release cytotoxicity (100 µM) [%] | also measured
1 | COc1cc(-c2ccc(N)c(OC)c2)ccc1N [3,3'-Dimethoxybenzidine] | -2.67 ± 0.52 | -2.03 ± 1.2 | -2.61 ± 0.54 | -2.72 ± 1.3 | -1.97 ± 0.08 | -2.38 ± 0.65 | -2.12 ± 0.23 | -0.532 ± 0.63 | –
2 | CCc1cccc(CC)c1N [2,6-Diethylaniline] | -1.27 ± 1.1 | -2.24 ± 0.81 | -1.42 ± 0.19 | -0.395 ± 0.46 | -0.592 ± 0.21 | -1.25 ± 1.1 | -0.819 ± 0.47 | -0.482 ± 0.8 | –
3 | CC12C=CC3=C4CCC(=O)C=C4CCC3C1CCC2O (stereo not drawn) [17beta-Trenbolone] | -1.81 ± 0.85 | -1.96 ± 0.88 | -2.23 ± 1 | -1.89 ± 0.49 | -1.55 ± 0.47 | -1.02 ± 0.27 | -1.05 ± 0.63 | 0.211 ± 0.55 | –
4 | O=[Si]=O [Silica] | -1.16 ± 0.54 | -1.07 ± 0.26 | -1.23 ± 0.016 | -0.971 ± 0.66 | -1.72 ± 0.45 | -1.27 ± 0.37 | -0.861 ± 1 | 0.501 ± 1.1 | –
5 | N#CC(Br)(Br)C(N)=O [2,2-Dibromo-3-nitrilopropionamide] | – | – | – | – | – | – | – | – | LDH release cytotoxicity (0.0314647 µM): -1.52 ± 0.18%; LDH release cytotoxicity (0.0995 µM): -0.658 ± 0.1%; LDH release cytotoxicity (0.3146466 µM): -0.437 ± 0.73%; LDH release cytotoxicity (0.995 µM): -0.589 ± 0.45%; LDH release cytotoxicity (3.14647 µM): 0.314 ± 0.39%; LDH release cytotoxicity (9.95 µM): 0.381 ± 0.73%; LDH release cytotoxicity (31.4647 µM): -0.137 ± 0.43%; LDH release cytotoxicity (99.5 µM): 1.42 ± 0.75%
6 | CCCCCCCCCCCCCCOS(=O)(=O)O [Sodium myristyl sulfate] | -2.12 ± 0.45 | -2.09 ± 0.56 | -2.4 ± 1.5 | -2.13 ± 0.48 | -2.25 ± 0.37 | -1.43 ± 0.37 | -1.69 ± 0.59 | 12.5 ± 6.7 | –
7 | Nc1nc(=O)c2nc(CNc3ccc(C(=O)NC(CCC(=O)O)C(=O)O)cc3)cnc2[nH]1 (configuration not stated) [Folic acid] | -0.0941 ± 0.85 | -1.11 ± 0.044 | -1.22 ± 0.067 | -1.1 ± 0.086 | -0.966 ± 0.064 | -0.672 ± 0.085 | -0.33 ± 0.12 | 1.64 ± 0.3 | –
8 | CC12CCC3c4ccc(O)cc4CCC3C1CCC2=O (configuration not stated) [Estrone] | -1.21 ± 0.2 | -1.61 ± 0.43 | -1.15 ± 0.68 | -2.36 ± 0.6 | -2.37 ± 0.056 | -2.52 ± 0.45 | -1.9 ± 0.29 | 0.127 ± 1.1 | –
9 | CCCCCCCCOC(=O)CCCCCCCCC(=O)OCCCCCCCC [Dioctyl sebacate] | -0.979 ± 0.56 | -1.87 ± 0.14 | -1.9 ± 0.45 | -1.13 ± 0.44 | -1.59 ± 0.11 | -0.887 ± 0.82 | 5.14 ± 1.2 | 68.74 ± 0.047 | –
10 | CCCCNC(=O)n1c(NC(=O)OC)nc2ccccc21 [Benomyl] | -1.36 ± 0.32 | -0.152 ± 0.59 | -0.651 ± 0.35 | -2.31 ± 0.2 | -1.18 ± 0.56 | 8.93 ± 2.2 | 8.73 ± 0.26 | 9.79 ± 0.95 | –
11 | N#CN [Cyanamide] | -0.717 ± 0.38 | -2.37 ± 0.27 | -1.74 ± 0.7 | -1.73 ± 0.39 | -2.07 ± 0.26 | -1.59 ± 0.22 | -1.21 ± 0.71 | -0.0755 ± 0.84 | –
12 | S=C([S-])NCCNC(=S)[S-].S=C([S-])NCCNC(=S)[S-].[Mn+2].[Zn+2] [Mancozeb] | – | – | – | – | – | – | – | – | LDH release cytotoxicity (0.01581 µM): -1.38 ± 0.48%; LDH release cytotoxicity (0.05 µM): -1.29 ± 0.95%; LDH release cytotoxicity (0.1581139 µM): -2.2 ± 0.12%; LDH release cytotoxicity (0.5 µM): -0.828 ± 0.04%; LDH release cytotoxicity (1.5811388 µM): 30.3 ± 1.4%; LDH release cytotoxicity (5 µM): 68.2 ± 0.83%; LDH release cytotoxicity (15.8114 µM): 72.55 ± 0.27%; LDH release cytotoxicity (50 µM): 77.11 ± 0.33%
13 | CCCCCCCC[Si](OCC)(OCC)OCC [Triethoxyoctylsilane] | -0.684 ± 0.49 | 0.171 ± 0.31 | -0.00576 ± 0.17 | -0.327 ± 0.22 | 0.39 ± 0.57 | 0.433 ± 0.79 | 0.376 ± 0.72 | 1.59 ± 0.21 | –
14 | COCC(C)O (configuration not stated) [1-Methoxy-2-propanol] | -0.68 ± 0.076 | -1.18 ± 1.1 | -1.53 ± 0.67 | -1.81 ± 0.6 | -1.09 ± 0.06 | -0.197 ± 0.52 | -0.477 ± 0.073 | 0.469 ± 0.036 | –
15 | COP(N)(=O)SC (configuration not stated) [Methamidophos] | 5.78 ± 0.77 | 2.73 ± 1.8 | 2.4 ± 2.4 | 3.67 ± 3.3 | 3.79 ± 2.6 | 3.76 ± 1.4 | 5.99 ± 0.16 | 6.57 ± 0.57 | –
16 | c1cc2ccc3cccc4ccc(c1)c2c34 [Pyrene] | 0.277 ± 0.94 | -1.34 ± 0.14 | -1.54 ± 0.5 | -0.813 ± 0.25 | -0.783 ± 0.011 | -0.0329 ± 0.0016 | -0.764 ± 0.4 | -0.178 ± 0.085 | –
17 | NNC(=O)c1ccncc1 [Isoniazid] | – | – | – | – | – | – | – | – | LDH release cytotoxicity (0.013914 µM): -1.4 ± 0.98%; LDH release cytotoxicity (0.044 µM): -0.0891 ± 1.3%; LDH release cytotoxicity (0.13914 µM): -1.34 ± 0.49%; LDH release cytotoxicity (0.44 µM): -1.05 ± 1.1%; LDH release cytotoxicity (1.3914 µM): -1.62 ± 0.34%; LDH release cytotoxicity (4.4 µM): -0.682 ± 2%; LDH release cytotoxicity (13.914 µM): -0.843 ± 0.11%; LDH release cytotoxicity (44 µM): -0.0914 ± 0.33%
18 | CCCCCCCCCC [Decane] | – | -2.33 ± 0.84 | – | -2.73 ± 0.13 | -3.64 ± 0.16 | -2.67 ± 0.26 | -1.91 ± 0.28 | 0.361 ± 0.12 | LDH release cytotoxicity (0.031623 µM): -0.647 ± 0.6%; LDH release cytotoxicity (0.316228 µM): -2.41 ± 0.87%
19 | CN(CC(CC[N+]12CCC(C3CCCCC3)(CC1)CC2)c1ccc(Cl)c(Cl)c1)C(=O)c1cc(C(F)(F)F)cc(C(F)(F)F)c1 (configuration not stated) | -0.117 ± 0.43 | -0.956 ± 0.68 | -1.24 ± 0.014 | -1.39 ± 0.29 | -1.45 ± 0.36 | 1.28 ± 0.3 | 57.3 ± 4 | 84.4 ± 3.8 | –
